Like-named read-outs stand apart in the source and are kept apart here.
How the values were obtained:
[1] = molecular target: SARS-CoV-2 main protease (Mpro) (Severe acute respiratory syndrome coronavirus 2, UniProt P0DTD1); test: biochemical
[2] = tested on: SARS-CoV-2 (strain USA-WA1/2020); test: microbe, parasite or virus in culture; format: cell-based
[3] = tested on: HeLa-ACE2 cells; test: cells; format: cell-based; settings: Table 2, total cell count in infected plates
[4] = Uninfected host cell cytotoxicity counter screen; format: cell-based; settings: human
Description: Uninfected host cell cytotoxicity counter screen: HeLa-ACE2 cells were maintained as described for the infection assay and seeded in the assay-ready plates at 400 cells/well. Plates were incubated for 24 hours at 37° C. 5% CO2. To assess cell viability, the Image-iT DEAD green reagent was used according to manufacturer instructions. Cells were fixed with 4% paraformaldehyde, and counterstained with DAPI. Fixed cells are imaged as described above.
Viral replication data analysis: Data from the primary screen and the host cell cytotoxicity screen are normalized to neutral (DMSO) […] inhibitor controls (2.5 μM Remdesivir for antiviral effect and 10 μM puromycin for infected host cell toxicity). For the uninfected host cell cytotoxicity counter-screen 40 μM puromycin is used as the positive control. Concentration response experiments will be tested in triplicate.

[5] = Severe acute respiratory syndrome coronavirus 2, Table 2, SARS-CoV-2 infected HeLa-ACE2 cells, read-out: CoV-2 HeLa EC50
[6] = Table 3, select example compounds against mpro, read-out: Enzyme IC50
[7] = Severe acute respiratory syndrome coronavirus 2, HeLa, Table 3, read-out: CoV-2 HeLa EC50
[8] = Severe acute respiratory syndrome coronavirus 2, HeLa-ACE2, read-out: CoV-2 HeLa EC50, Table 2, SARS-CoV-2 infected HeLa-ACE2 cells
[9] = Table 2, uninfected cells, 24 hours, read-out: Uninfected HeLa-ACE2 CC50

SMILES	IC50 ([1]; Table 2, read-out: Enzyme IC50) [nM]	EC50 [2, 5] [nM]	EC50 [3] [nM]	CC50 at 24 h [4] [µM]	IC50 [1, 6] [nM]	EC50 [2, 7] [nM]	IC50 ([1]; Enzyme IC50, Table 2) [nM]	EC50 [2, 8] [nM]	CC50 at 24 h [4, 9] [µM]
Cc1cncc(C(=O)N2CCN(C(c3ccccc3)c3ccsc3)CC2)c1 (stereo not shown) [MKP-1222, 1-(5-methylpyridine-3-carbonyl)-4-[phenyl(thiophen-3-yl)methyl]piperazine]	370	1400	1240	> 39.8	–	–	–	–	–
O=C(c1cccnc1)N1CCN(C2c3ccccc3CCc3ccccc32)CC1 [ZS-312, 3-pyridyl-[4-(2-tricyclo[9.4.0.03,8]pentadeca-1(11),3(8),4,6,12,14-hexaenyl)piperazin-1-yl]methanone]	440	1040	> 9610	> 39.8	–	–	–	–	–
O=C(c1cncc(Cl)c1)N1CCC(C(O)(c2ccccc2)c2ccccc2)CC1 [NZ-779, [1-(5-chloropyridine-3-carbonyl)piperidin-4-yl]diphenylmethanol]	370	710	> 9610	> 39.8	–	–	–	–	–
COc1cncc(C(=O)N2CCN(C3c4ccccc4CCc4ccccc43)CC2)c1 [ZS-319, (5-methoxy-3-pyridyl)-[4-(2-tricyclo[9.4.0.03,8]pentadeca-1(11),3(8),4,6,12,14-hexaenyl)piperazin-1-yl]methanone]	210	920	> 9610	32.1	–	–	–	–	–
O=C(c1cncc(C(F)(F)F)c1)N1CCN(C(c2ccccc2)c2cccnc2)CC1 (stereo not shown) [MKP-1195, 1-[phenyl(pyridin-3-yl)methyl]-4-[5-(trifluoromethyl)pyridine-3-carbonyl]piperazine]	2680	8770	> 9610	> 39.8	–	–	–	–	–
Cc1cncc(C(=O)N2CCN(C(c3ccccc3)c3ccc(F)cc3)CC2)c1 (stereo not shown) [AA-620, (4-((4-fluorophenyl)(phenyl)methyl)piperazin-1-yl)(5-methylpyridin-3-yl)methanone]	260	717	841	> 39.8	–	–	–	–	–
Cc1cncc(C(=O)N2CCC(=C3c4ccccc4CS(=O)(=O)c4ccccc43)CC2)c1 [NZ-801, [4-(5,5-dioxo-6H-benzo[c][1]benzothiepin-11-ylidene)-1-piperidyl]-(5-methyl-3-pyridyl)methanone]	56	42	81	> 39.8	12	42	–	–	–
O=C(c1cncc2cc[nH]c12)N1CC2CCC(C1)N2C(c1ccccc1)c1ccccc1 [AA-643, (8-benzhydryl-3,8-diazabicyclo[3.2.1]octan-3-yl)(1H-pyrrolo[3,2-c]pyridin-7-yl)methanone]	–	–	1050	–	–	–	58	348	21.5
O=C(c1cccnc1)N1CCN(C(c2ccccc2)c2ccsc2)CC1 (stereo not shown) [MKP-1215, 1-[phenyl(thiophen-3-yl)methyl]-4-(pyridine-3-carbonyl)piperazine]	4500	2810	> 9610	> 39.8	–	–	–	–	–
Cc1cnc(F)c(C(=O)N2CC3CCC(C2)N3C(c2ccccc2)c2ccccc2)c1 [AA-638, (8-benzhydryl-3,8-diazabicyclo[3.2.1]octan-3-yl)(2-fluoro-5-methylpyridin-3-yl)methanone]	–	–	711	–	–	–	220	893	> 39.8
O=C(c1cncc(F)c1)N1CCC(C(O)(c2ccccc2)c2ccccc2)CC1 [NZ-778, [1-(5-fluoropyridine-3-carbonyl)piperidin-4-yl]diphenylmethanol]	1700	3630	> 9610	> 39.8	–	–	–	–	–
COc1cncc(C(=O)N2CCN(C(c3ccccc3)c3cccnc3)CC2)c1 (stereo not shown) [MKP-1194, 1-(5-methoxypyridine-3-carbonyl)-4-[phenyl(pyridin-3-yl)methyl]piperazine]	1100	2120	> 9610	> 39.8	–	–	–	–	–
Cc1cncc(C(=O)N2CCN(C(c3ccc(F)cc3)c3ccccc3F)CC2)c1 (stereo not shown) [MKP-1277, 1-[(2-fluorophenyl)(4-fluorophenyl)methyl]-4-(5-methylpyridine-3-carbonyl)piperazine]	150	747	2700	> 39.8	–	–	–	–	–
O=C(c1cc(Br)cnc1Cl)N1CCN(C(c2ccccc2)c2ccccc2)CC1 [AA-606, (4-benzhydrylpiperazin-1-yl)(5-bromo-2-chloropyridin-3-yl)methanone]	> 10000	–	> 9610	> 39.8	–	–	–	> 9610	–
O=C(c1cncc(Br)c1)N1CCC(C(O)(c2ccccc2)c2ccccc2)CC1 [NZ-770, [1-(5-bromopyridine-3-carbonyl)piperidin-4-yl]diphenylmethanol]	380	510	> 9610	> 39.8	–	–	–	–	–
O=C(c1cncnc1)N1CCN(C(c2ccccc2)c2ccccc2)CC1 [AA-577, (4-benzhydrylpiperazin-1-yl)(pyrimidin-5-yl)methanone]	8300	8510	> 9610	> 39.8	–	–	–	–	–
O=C(c1cncc(C(F)(F)F)c1)N1CCN(C(c2ccccc2)c2ccccc2)CC1 [AA-590, (4-benzhydrylpiperazin-1-yl)(5-(trifluoromethyl)pyridin-3-yl)methanone]	990	4900	> 9610	> 39.8	–	–	–	–	–
Cc1ccncc1C(=O)N1CCN(C(c2ccccc2)c2ccccc2)CC1 [AA-611, (4-benzhydrylpiperazin-1-yl)(4-methylpyridin-3-yl)methanone]	2500	–	> 9610	> 39.8	–	–	–	> 9610	–
O=C(c1cncc(Cl)c1)N1CCN(C(c2ccccc2)c2cccc(F)c2)CC1 (stereo not shown) [MKP-1227, 1-(5-chloropyridine-3-carbonyl)-4-[(3-fluorophenyl)(phenyl)methyl]piperazine]	88	457	614	> 39.8	–	–	–	–	–
COc1cncc(C(=O)N2CCN(C(c3ccccc3)c3ccccc3)CC2)c1 [AA-589, (4-benzhydrylpiperazin-1-yl)(5-methoxypyridin-3-yl)methanone]	480	1430	> 9610	> 39.8	–	–	–	–	–
Cc1cncc(C(=O)N2CCN(C(c3ccccc3)c3ccccc3F)CC2)c1 (stereo not shown) [MKP-1287, 1-[(2-fluorophenyl)(phenyl)methyl]-4-(5-methylpyridine-3-carbonyl)piperazine]	66	599	810	> 39.8	–	–	–	–	–
O=C(c1cncc2[nH]ccc12)N1CCC(=C2c3ccccc3CS(=O)(=O)c3ccccc32)CC1 [NZ-805, [4-(5,5-dioxo-6H-benzo[c][1]benzothiepin-11-ylidene)-1-piperidyl]-(1H-pyrrolo[2,3-c]pyridin-4-yl)methanone]	48	58	64	> 39.8	14	58	–	–	–
O=C(c1cncc(F)c1)N1CCC(=C(c2ccccc2)c2ccccc2)CC1 [NZ-780, 3-[4-(diphenylmethylidene)piperidine-1-carbonyl]-5-fluoropyridine]	310	1390	> 9610	30.1	–	–	–	–	–
O=C(c1cncc([N+](=O)[O-])c1)N1CCN(C2c3ccccc3CCc3ccccc32)CC1 [ZS-339, (5-nitro-3-pyridyl)-[4-(2-tricyclo[9.4.0.03,8]pentadeca-1(11),3(8),4,6,12,14-hexaenyl)piperazin-1-yl]methanone]	1150	4060	> 9610	> 39.8	–	–	–	–	–

Source: US20250084091A1, “INHIBITORS OF SARS-COV-2” (The Texas A&M University System, priority 2021, published 2025)
